# Test results published in patent publication US20240109842A1, “ACRYLAMIDE COMPOUNDS” (OTSUKA PHARMACEUTICAL CO., LTD., priority 2019, published 2024).
# Columns and labels:
# [1] = system: immortalized megakaryocyte cell line; assay: Test Example 2: platelet production, shake culturing, with various aryl hydrocarbon receptor antagonists
# [2] = system: immortalized megakaryocyte cell line; assay: Test Example 1: platelet production, shake culturing; assay type: cell-based; settings: compound 10 μM added at Day 3; for fold induction at 10 µM: Platelet, 144 h, DMSO added at cell seeding (no AhR antagonist), platelets (CD41, CD42a, CD42b-positive) counted after 6 days, read-out: Amount of platelet production (vs. Control); for Amount of platelet production (vs. Control): aryl hydrocarbon receptor antagonist Compound A5 0.1 μM added at cell seeding, counted after 6 days
# Procedure: The immortalized megakaryocyte cell line obtained according to the method described in WO 2016/204256 was washed twice with D-PBS(−) and then cultured in medium not containing doxycycline to terminate forced expression (cultured under conditions where gene expression is OFF). Shake culturing at 100 rpm was performed in the following medium after the cells were seeded in a 125-mL polycarbonate Erlenmeyer flask (Corning #431143) at 25 mL/flask and a seeding density of 1×10^5 cells/mL. Culturing conditions were 37° C. and 5% CO2. The medium was obtained by adding the following components to IMDM serving as the basal medium (concentrations indicate final concentrations). • FBS 15% • L-Glutamine 2 mM • ITS 100-fold dilution • MTG 450 μM • Ascorbic acid 50 μg/mL • SCF 50 ng/mL • TA-316 0.1 μg/mL • ADAM inhibitor 15 μM • ROCK inhibitor 0.5 μM […] After culturing for 6 days in total, the number of platelets was measured. The measurement method was as follows. The same operation was performed for control. At 6 days after initiation of the culturing under conditions where gene expression was OFF, a part of the culture supernatant was collected, and suspended with the following antibody and Flow-Count Fluorospheres (Beckman Coulter #7547053) to perform staining. • APC-labeled anti-CD41 antibody (BioLegend #303710) • eFluor 450-labeled anti-CD42a antibody (eBioscience #48-0428-42) • PE-labeled anti-CD42b antibody (BioLegend #303906) At 30 minutes after staining, number of platelets (CD41, CD42a and CD42b-positive cells) was counted by using FACSVerse (manufactured by BD Japan) with Flow-Count Fluorospheres. The number of platelets was given as a percentage of the control.
# [3] = Platelet, 144 h, read-out: Amount of platelet production (vs. Control)
# [4] = comparative examples: only an aryl hydrocarbon receptor antagonist, no acrylamide compound, A1 0.75 μM, A2 0.1 μM, A3 10 μM, A4 1 μM, A5 to A8 0.1 μM
# [5] = with aryl hydrocarbon receptor antagonist Compound A2 0.1 μM, otherwise as Test Example 1
structure (smiles),measurement,setting,value
"CC(C)n1cnc2c(NCCc3ccc(O)cc3)nc(-c3csc4ccccc34)nc21 [Compound A1, 4-[2-[[2-benzo[b]thien-3-yl-9-(1-methylethyl)-9H-purin-6-yl]amino]ethyl]phenol, reference compound]",fold induction at 0.75 µM,[1]; [3],1.5 to 6.5
"Cc1cc(-c2ccc(CC(=O)Nc3ccc(-c4cccnc4)cc3)cc2)ccn1 [Compound A3, 4-(2-Methyl-4-pyridinyl)-N-[4-(3-pyridinyl)phenyl]-benzeneacetamide, reference compound]",fold induction at 10 µM,[1]; [3],1.5 to 6.5
"Cc1ccccc1/N=N/c1ccc(NC(=O)c2ccnn2C)c(C)c1 [Compound A4, 1-Methyl-N-[2-methyl-4-[2-(2-methylphenyl)diazenyl]phenyl]-1H-pyrazole-5-carboxamide, reference compound]",fold induction at 1 µM,[1]; [3],1.5 to 6.5
"CC1(C)COc2nc3c(NCCc4ccc(O)c(-c5cccc(C#N)c5)c4)nc(-c4cncc(F)c4)nc3n21 [Compound A5, 3-[5-[2-[[2-(5-Fluoropyridin-3-yl)-8,8-dimethyl-7H-purino[8,9-b][1,3]oxazol-4-yl]amino]ethyl]-2-hydroxyphenyl]benzonitrile, reference compound]",Amount of platelet production (vs. Control),[1]; [4],+ (the amount of platelets production increased by not less than 1.5 times and less than 6.5 times)
"CC1(C)COc2nc3c(NCCc4ccc(O)c(-c5ccccc5F)c4)nc(-c4cncc(F)c4)nc3n21 [Compound A6, 2-(2-fluorophenyl)-4-[2-[[2-(5-fluoropyridin-3-yl)-8,8-dimethyl-7H-purino[8,9-b][1,3]oxazol-4-yl]amino]ethyl]phenol, reference compound]",Amount of platelet production (vs. Control),[1]; [4],+ (the amount of platelets production increased by not less than 1.5 times and less than 6.5 times)
"CC1(C)COc2nc3c(NCCc4ccc(O)c(-c5cncc(F)c5)c4)nc(-c4cncc(F)c4)nc3n21 [Compound A7, 2-(5-fluoropyridin-3-yl)-4-[2-[[2-(5-fluoropyridin-3-yl)-8,8-dimethyl-7H-purino[8,9-b][1,3]oxazol-4-yl]amino]ethyl]phenol, reference compound]",Amount of platelet production (vs. Control),[1]; [4],+ (the amount of platelets production increased by not less than 1.5 times and less than 6.5 times)
"CC1(C)CSc2nc3c(NCCc4ccc(O)c(-c5ccccc5F)c4)nc(-c4cncc(F)c4)nc3n21 [Compound A8, 2-(2-fluorophenyl)-4-[2-[[2-(5-fluoropyridin-3-yl)-8,8-dimethyl-7H-purino[8,9-b][1,3]thiazol-4-yl]amino]ethyl]phenol, reference compound]",fold induction at 0.1 µM,[1]; [3],1.5 to 6.5
"COc1cccc2c(/C=C/C(=O)NCCc3sccc3-c3ncccn3)c[nH]c12 [Example 45, (E)-3-(7-methoxy-1H-indol-3-yl)-N-[2-(3-pyrimidin-2-ylthiophen-2-yl)ethyl]prop-2-enamide]",fold induction at 10 µM,[2],1.5 to 6.5
same,Amount of platelet production (vs. Control),[2],++ (not less than 6.5 times)
Cc1cccc2c(/C=C/C(=O)NCCc3ccccc3-c3ncccn3)c[nH]c12 [Example 46],fold induction at 10 µM,[2],1.5 to 6.5
same,Amount of platelet production (vs. Control),[2],++ (not less than 6.5 times)
"O=C(/C=C/c1c[nH]c2ccccc12)NCCc1ccccc1-c1ncccn1 [Example 47, (E)-3-(1H-indol-3-yl)-N-[2-(2-pyrimidin-2-ylphenyl)ethyl]prop-2-enamide]",fold induction at 10 µM,[2],1.5 to 6.5
same,Amount of platelet production (vs. Control),[2],++ (not less than 6.5 times)
O=C(/C=C/c1c[nH]c2c(Cl)cccc12)NCCc1ccccc1-c1ncccn1 [Example 48],fold induction at 10 µM,[2],1.5 to 6.5
same,Amount of platelet production (vs. Control),[2],++ (not less than 6.5 times)
COc1nccc2c(/C=C/C(=O)NCCc3ccccc3-c3ncccn3)c[nH]c12 [Example 49],fold induction at 10 µM,[2],1.5 to 6.5
same,Amount of platelet production (vs. Control),[2],++ (not less than 6.5 times)
COc1cccc2c(/C=C/C(=O)NCCc3ccccc3-c3ncc(F)cn3)c[nH]c12 [Example 51],fold induction at 10 µM,[2],1.5 to 6.5
same,Amount of platelet production (vs. Control),[2],++ (not less than 6.5 times)
COc1cccc2c(/C=C/C(=O)NCCc3ccccc3-c3ncc(C)cn3)c[nH]c12 [Example 52],fold induction at 10 µM,[2],1.5 to 6.5
same,Amount of platelet production (vs. Control),[2],++ (not less than 6.5 times)
COc1cccc2c(/C=C/C(=O)NCCc3ccccc3-c3ncccn3)cn(C)c12 [Example 53],fold induction at 10 µM,[2],1.5 to 6.5
same,Amount of platelet production (vs. Control),[2],++ (not less than 6.5 times)
COCCn1cc(/C=C/C(=O)NCCc2ccccc2-c2ncccn2)c2cccc(OC)c21 [Example 54],fold induction at 10 µM,[2],1.5 to 6.5
same,Amount of platelet production (vs. Control),[2],++ (not less than 6.5 times)
COC(=O)n1cc(/C=C/C(=O)NCCc2ccccc2-c2ncc(OC)cn2)c2cccc(OC)c21 [Example 55],fold induction at 10 µM,[2],1.5 to 6.5
same,Amount of platelet production (vs. Control),[2],++ (not less than 6.5 times)
COc1cnc(-c2ccccc2CCNC(=O)/C=C/c2c[nH]c3c(OC)cccc23)nc1 [Example 56],fold induction at 10 µM,[2],1.5 to 6.5
same,Amount of platelet production (vs. Control),[2],++ (not less than 6.5 times)
CCOc1ccccc1CCNC(=O)/C=C/c1c[nH]c2c(CC)cccc12 [Example 57],fold induction at 10 µM,[2],1.5 to 6.5
same,Amount of platelet production (vs. Control),[2],++ (not less than 6.5 times)
same,Amount of platelet production (vs. Control),[1]; [5],++ (not less than 6.5 times)
CCOc1ccc(OC)cc1CCNC(=O)/C=C/c1c[nH]c2c(OC)cccc12 [Example 59],fold induction at 10 µM,[2],1.5 to 6.5
same,Amount of platelet production (vs. Control),[2],++ (not less than 6.5 times)
same,Amount of platelet production (vs. Control),[1]; [5],++ (not less than 6.5 times)
CCOc1ccccc1CCNC(=O)/C=C/c1c[nH]c2c(C)cccc12 [Example 60],fold induction at 10 µM,[2],1.5 to 6.5
same,Amount of platelet production (vs. Control),[2],++ (not less than 6.5 times)
same,Amount of platelet production (vs. Control),[1]; [5],++ (not less than 6.5 times)
CCOc1ccccc1CCNC(=O)/C=C/c1c[nH]c2c(OC)cccc12 [Example 61],fold induction at 10 µM,[2],1.5 to 6.5
same,Amount of platelet production (vs. Control),[2],++ (not less than 6.5 times)
same,Amount of platelet production (vs. Control),"[1]; with aryl hydrocarbon receptor antagonist Compound A1 0.75 μM, otherwise as Test Example 1",++ (not less than 6.5 times)
same,Amount of platelet production (vs. Control),[1]; [5],++ (not less than 6.5 times)
same,Amount of platelet production (vs. Control),"[1]; with aryl hydrocarbon receptor antagonist Compound A3 10 μM, otherwise as Test Example 1",++ (not less than 6.5 times)
same,Amount of platelet production (vs. Control),"[1]; with aryl hydrocarbon receptor antagonist Compound A4 1 μM, otherwise as Test Example 1",++ (not less than 6.5 times)
same,Amount of platelet production (vs. Control),"[1]; with aryl hydrocarbon receptor antagonist Compound A7 0.1 μM, otherwise as Test Example 1",++ (not less than 6.5 times)
same,Amount of platelet production (vs. Control),"[1]; with aryl hydrocarbon receptor antagonist Compound A8 0.1 μM, otherwise as Test Example 1",++ (not less than 6.5 times)
